Test results as given in PubChem BioAssay (NCI).
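Step 1: Grow cells in 96-well plates. Step 2: Expose to compound for 48 hours at 5 concentrations. Step 3: Interpolate endpoints linearly; if unreached, use highest concentration. GI50 marks 50% less growth. The concentration for full growth arrest is given as TGI.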

Assays:
Test in all cases: NCI tumour cell line growth inhibition, 48 h; in the data active = GI50 below about 0.43 µM; inactive = the rest
[1] = system: COLO 205 colon
[2] = system: MDA-N
[3] = system: RXF 393 renal
[4] = system: SF-268 CNS
[5] = system: SK-MEL-2 melanoma
[6] = system: LOX IMVI melanoma
[7] = system: HOP-92 NSCLC
[8] = system: CAKI-1 renal
[9] = system: 786-0 renal
[10] = system: MDA-MB-435
[11] = system: BT-549 breast
[12] = system: NCI-H522 lung
[13] = system: HL-60(TB) leukemia
[14] = system: UACC-62 melanoma
[15] = system: UACC-257 melanoma
[16] = system: K-562 leukemia
[17] = system: HS 578T breast
[18] = system: A549 NSCLC
[19] = system: SW-620 colon
[20] = system: HOP-62 NSCLC
[21] = system: U251 CNS
[22] = system: CCRF-CEM leukemia
[23] = system: DU-145 prostate
[24] = system: NCI-H23 lung
[25] = system: SR leukemia
[26] = system: MCF7 breast
[27] = system: HCC-2998 colon
[28] = system: SK-MEL-28 melanoma
[29] = system: SNB-75 CNS
[30] = system: NCI-H460 lung
[31] = system: SN12C renal
[32] = system: IGROV1 ovarian
[33] = system: OVCAR-8 ovarian
[34] = system: RPMI-8226 leukemia
[35] = system: NCI-H226 lung
[36] = system: MOLT-4 leukemia
[37] = system: SF-295 CNS
[38] = system: SNB-19 CNS
[39] = system: NCI/ADR-RES ovarian
[40] = system: SF-539 CNS
[41] = system: HCT-116 colon
[42] = system: TK-10 renal
[43] = system: M14 melanoma
[44] = system: HT29 colon
[45] = system: A498 renal
[46] = system: ACHN renal
[47] = system: EKVX NSCLC
[48] = system: MALME-3M melanoma
[49] = system: OVCAR-5 ovarian
[50] = system: T-47D breast
[51] = system: PC-3 prostate
[52] = system: MDA-MB-231 breast
[53] = system: OVCAR-4 ovarian
[54] = system: HCT-15 colon
[55] = system: SK-MEL-5 melanoma
[56] = system: OVCAR-3 ovarian
[57] = system: KM12 colon
[58] = system: SK-OV-3 ovarian
[59] = system: UO-31 renal

O=c1oc2c([N+](=O)[O-])cc([N+](=O)[O-])cc2c2ccccc12
> 100 µM: TGI [1] | TGI [2] | TGI [3] | TGI [4] | TGI [5] | TGI [6] | TGI [7] | TGI [8] | TGI [9] | TGI [10] | TGI [11] | TGI [12] | TGI [13] | TGI [14] | TGI [15] | TGI [16] | TGI [17] | TGI [18] | TGI [19] | TGI [20] | TGI [21] | TGI [22] | TGI [23] | TGI [24] | TGI [25] | TGI [26] | TGI [27] | TGI [28] | TGI [29] | TGI [30] | TGI [31] | TGI [32] | TGI [33] | TGI [34] | TGI [35] | TGI [36] | TGI [37] | TGI [38] | TGI [39] | TGI [40] | TGI [41] | TGI [42] | TGI [43] | TGI [44] | TGI [45] | TGI [46] | TGI [47] | TGI [48] | TGI [49] | TGI [50] | TGI [51] | TGI [52] | TGI [53] | TGI [54] | TGI [55] | TGI [56]

CCCCc1ccc(Nc2nc3c(ncn3COCCBr)c(=O)[nH]2)cc1
> 100 µM: TGI [1] | TGI [2] | TGI [3] | TGI [4] | TGI [5] | TGI [6] | TGI [7] | TGI [8] | TGI [9] | TGI [10] | TGI [11] | TGI [12] | TGI [13] | TGI [14] | TGI [15] | TGI [16] | TGI [17] | TGI [18] | TGI [19] | TGI [20] | TGI [21] | TGI [22] | TGI [23] | TGI [24] | TGI [25] | TGI [26] | TGI [27] | TGI [29] | TGI [30] | TGI [31] | TGI [32] | TGI [33] | TGI [34] | TGI [35] | TGI [36] | TGI [37] | TGI [57] | TGI [38] | TGI [39] | TGI [40] | TGI [41] | TGI [42] | TGI [43] | TGI [44] | TGI [45] | TGI [46] | TGI [47] | TGI [48] | TGI [49] | TGI [58] | TGI [50] | TGI [59] | TGI [51] | TGI [52] | TGI [53] | TGI [54] | TGI [55] | TGI [56]

CCN(CC)C(=S)SS(=O)(=O)c1ccc(N)cc1
> 94.2 µM: TGI [45]
inactive: GI50 [1] > 100 µM | GI50 [4] > 100 µM | GI50 [6] > 100 µM | GI50 [10] > 100 µM | GI50 [11] > 100 µM | GI50 [13] > 100 µM | GI50 [15] > 100 µM | GI50 [19] > 100 µM | GI50 [21] > 100 µM | GI50 [22] > 100 µM | GI50 [23] > 100 µM | GI50 [28] > 100 µM | GI50 [29] 48.5 µM | GI50 [31] > 100 µM | GI50 [33] > 100 µM | GI50 [35] 99.2 µM | GI50 [37] > 100 µM | GI50 [39] > 100 µM | GI50 [41] > 100 µM | GI50 [42] > 100 µM | GI50 [48] 46.2 µM | GI50 [51] 90.8 µM | GI50 [52] > 100 µM | GI50 [53] > 100 µM | GI50 [54] > 100 µM | GI50 [56] > 100 µM
> 90.2 µM: TGI [8]
> 100 µM: TGI [1] | TGI [2] | TGI [3] | TGI [4] | TGI [5] | TGI [6] | TGI [7] | TGI [9] | TGI [10] | TGI [11] | TGI [13] | TGI [14] | TGI [15] | TGI [16] | TGI [17] | TGI [18] | TGI [19] | TGI [20] | TGI [21] | TGI [22] | TGI [23] | TGI [24] | TGI [25] | TGI [26] | TGI [27] | TGI [28] | TGI [29] | TGI [30] | TGI [31] | TGI [32] | TGI [33] | TGI [34] | TGI [35] | TGI [36] | TGI [37] | TGI [57] | TGI [38] | TGI [39] | TGI [41] | TGI [42] | TGI [43] | TGI [44] | TGI [46] | TGI [47] | TGI [48] | TGI [49] | TGI [58] | TGI [50] | TGI [59] | TGI [51] | TGI [52] | TGI [53] | TGI [54] | TGI [55] | TGI [56]
> 26.6 µM: TGI [12]

CCCCCCCCCCCCCCCC(=O)Nc1ccn(C2CC(OP(=O)(O)OCC3OC(n4cc(F)c(=O)[nH]c4=O)CC3OC(C)=O)C(CO)O2)c(=O)n1 (stereo unspecified)
> 47.2 µM: TGI [14]
> 64.5 µM: TGI [49]
52.8 µM: TGI [44]
71.8 µM: TGI [21]
34.4 µM: TGI [36]
> 66.3 µM: TGI [1]
22.7 µM: TGI [25]
> 39.5 µM: TGI [40]
37.7 µM: TGI [12]
> 36.5 µM: TGI [27]
> 100 µM: TGI [2] | TGI [6] | TGI [7] | TGI [9] | TGI [15] | TGI [16] | TGI [19] | TGI [22] | TGI [23] | TGI [26] | TGI [28] | TGI [30] | TGI [32] | TGI [35] | TGI [41] | TGI [42] | TGI [45] | TGI [47] | TGI [50] | TGI [53] | TGI [56]
46.1 µM: TGI [39]
90.9 µM: TGI [17]
> 52.3 µM: TGI [33]
> 41.3 µM: TGI [18]
48.1 µM: TGI [57]
> 21.9 µM: TGI [13]
62.2 µM: TGI [11]
> 61.5 µM: TGI [52]
25.2 µM: TGI [51]
> 71 µM: TGI [3]
> 63.4 µM: TGI [5]
> 65.4 µM: TGI [54]
3.54 µM: TGI [46]
> 51.6 µM: TGI [29] | TGI [58]
> 44.4 µM: TGI [4]
> 49.9 µM: TGI [31]
2.75 µM: TGI [59]
> 35.7 µM: TGI [8]
> 45.2 µM: TGI [37]
27.9 µM: TGI [34]
> 39.7 µM: TGI [43]
> 96.5 µM: TGI [55]
> 63.9 µM: TGI [24]
> 94.8 µM: TGI [10]
> 63.2 µM: TGI [38]
13.3 µM: TGI [20]
